From patent US20250115597A1, “TYK2 INHIBITORS AND COMPOSITIONS AND METHODS THEREOF” (LYNK PHARMACEUTICALS CO. LTD., priority 2021, published 2025) come the findings set out here.

In one data set the target is T1, TYK2-JH2 domain (Homo sapiens, UniProt P29597).
T1 construct: IC50 on JH2 domain activity (nM)
Put plainly: Binding activity test for JH2 domain of TYK2 (Tb-antibody/tracer FRET). The conditions noted are these: for JAK1/TYK2 selectivity: ratio JAK1-JH2 IC50 / TYK2-JH2 IC50. The procedure, abridged:
(§1)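 FRET read-out after 60 min at 25° C plus overnight at 4° C; tracer displacement detected via Tb-labelled antibody on the JH2 domain. Dose-response used 11 points at 3-fold dilution.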

Data set [1] concerns the target T2, Ba/F3-FL-TYK2-P760L cells (Homo sapiens, UniProt P29597, P760L, cells depend on it).
T2 construct: BaF3-FL-T2P760L (nM)
Nature of the data set: Anti-proliferative assay, Ba/F3-FL-TYK2-P760L cells (Cell-Titer Glo). It counts as cell-based. Conditions: 72 h, read-out: BaF3-FL-T2P760L IC50. The procedure, abridged: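 Compound exposure ran 72 h at 37 °C in 5% CO2 across nine 3-fold concentrations from a 20 μM top dose, added 24 h after seeding 2000 cells/well.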

Data set [2] in a line: Plasma protein binding by equilibrium dialysis. The conditions noted are these: human plasma, equilibrium dialysis 5 hours at 37° C.; read-out: % Bound (human) (converted). It counts as in vitro ADME. As for the experimental part:
Plasma Protein Binding by Equilibrium Dialysis
Aliquots of test compound stock solution and warfarin stock solution were spiked into plasma to give the matrix solutions with theoretical concentrations of test compound at 0.2 and 2 μM or warfarin at 2 μM. Immediately transfer 50 μL of the spiked plasma solution suspension to a 96-well plate to act as T=0 control sample. Assemble the dialysis set up following the manufacturer's instructions. Load cells with 150 μL of plasma sample and dialyzed against equal volume of dialysis buffer (PBS). The assay is performed in duplicate. Cover the unit with gas permeable lid and incubate for 5 hours at 37° C. at 100 rpm in a constant temperature shaking box. At the end of incubation, remove lid and pipette 50 μL of post-dialysis samples from both buffer and plasma solution chambers into separated 96-well plate for analysis, respectively. Add 50 μL of plasma solution to the buffer samples, and an equal volume of PBS to the collected plasma solution samples. Shake the plate at 1000 rpm for 2 minutes and add 600 μL of 50% ACN/MeOH containing an appropriate internal standard (IS) to precipitate protein and release compound. Vortex at 1000 rpm for 10 minutes. Centrifuge for 10 minutes at 4000 rpm. Then transfer 75 μL of the supernatant to new 96-well plates for analysis. Add 150 μL of distilled water to each sample and mix for analysis by LC-MS/MS.
The free rate (% Unbound), binding rate (% Bound), and recovery rate (% Recovery) of the compound are calculated as follows: […]
(In general: In equilibrium dialysis only unbound substance equilibrates across the membrane.)

The nature of data set [3]: Microsomal metabolic stability assay. Conditions: pH 7.4, 0.5 mg/mL protein, 1 μM compound. It counts as in vitro ADME. The gist of the method:
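Parent loss was tracked by LC/MS/MS at 0, 5, 15, 30 and 45 min, with half-life derived from the ln(% remaining)–time slope. Incubation at 37 °C, pH 7.4 phosphate/EDTA buffer: 0.5 mg/mL microsomes, 1 μM compound, NADPH-regenerated (2 mM).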

Data set [4] is described as follows: Hepatocytes metabolic stability assay. The format is in vitro ADME. Conditions: cryopreserved hepatocytes, human hepatocytes, 1.0×10^6 cells/mL. As for the experimental part: Hepatocytes Metabolic Stability Assay
The vials of cryopreserved hepatocytes were removed from the liquid nitrogen container and immediately immersed in a 37° C. water bath for approximately 2 min. The melted ice pellets were transferred into tubes containing 50 mL of pre-warmed thawing medium and mixed well by gently inverting the tubes, and then centrifuged at 500 rpm for 3 minutes at room temperature. The supernatants were discarded, and cell pellets were re-suspended by adding appropriate volumes of pre-warmed incubation medium. The cells viability of each species was determined using Trypan Blue exclusion. Add 50 μL of pre-warmed 2× dosing solution to the wells designated for different time points. Then 50 μL of cells suspension (2×10^6 cells/mL) were added into appropriate wells at corresponding time points of T15, T30, T60, T120. Start timing and put the plate in an incubator at 37° C. For TO sample, add 300 μL of ACN containing internal standard to the wells, mix gently, then add 50 μL of pre-warmed hepatocytes solution (2×10^6 cells/mL). The concentration of test compound was 1 μM and 1.0×10^6 cells/mL in the final incubation. At each corresponding time point, test and control compounds reaction samples were stopped by adding 300 μL acetonitrile containing internal standard. All sample plates were thoroughly mixed and centrifuged at 5000×g for 15 minutes. The supernatants were diluted at ratio of 1:1 with ultra-pure water for test and positive controls. Then submitted for LC-MS/MS analysis.
The analyte/internal standard peak area ratios were converted to percentage remaining with the following equation: […]
The in vitro elimination constant, k of test compounds and control compounds were calculated from a log linear plot of % Remaining versus time, then the half-life (T1/2), the estimation of the in vitro hepatic intrinsic clearance (CLint) values were calculated from substrate disappearance rate in hepatocytes incubation: […]

Another data set deals with T3, JAK1-JH2 domain (Homo sapiens, UniProt P23458).
T3 construct: IC50 on JH2 domain activity (nM)
Put plainly: Binding activity test for JH2 domain of JAK1 (Tb-antibody/tracer FRET). The gist of the method:
as §1

The test system of another data set is pSTAT1. Nature of the data set: Phosphorylation inhibition of STAT in human whole blood, IFN-alpha stimulated (flow cytometry). The format is cell-based. The conditions noted are these: 20 min; human whole blood, IFN-alpha 20 mins, CD3 cells; read-out: IC50 on pSTAT1 inhibition in h WB. As for the experimental part:
Phosphorylation Inhibition of STAT in Human PBMC and Human Whole Blood Testing:
The inhibitory potential of test articles in human PBMC and human whole blood assay was evaluated by the method of flow cytometry.
IFN-alpha will activate JAK1 and TYK2 kinase in T cells by binding to IFN receptors, and then lead to phosphorylation of STAT1 and STAT2. The phosphorylated STAT1 enter nuclear and promote transcription and expression of IFN-gamma. To evaluate the efficacy of TYK2i in T cells, freshly prepared human PBMC or freshly collected human whole blood will be stimulated with certain unit of human IFN-alpha (Universal Type I IFN(1MU), R&D, 11200-2) for 20 mins in incubator. After stimulation, fix cells with Phosflow™ Fix Buffer I (BD, 557870), and then collect fixed cells by centrifugation (500 g, 8 min). Wash cells once with pre-cooled PBS, and then permeabilize cells with cold Perm Buffer III buffer (BD, 558050) for 45 mins on ice. Collect cells by centrifugation (600 g, 8 min) and washed twice with cold PBS. Stain cells with anti-human CD3 (FITC Mouse Anti-Human CD3, BD, 555332) and anti-pSTAT1_Y701(Alexa Fluor 647 Mouse Anti-Stat1 (pY701), BD, 612597) antibodies. Detect pSTAT1 by flow cytometry (CytoFlex S) and analyze data with FlowJo and GraphPad Prism 8 software. IC50 values of test articles were determined using 4-parameter logistic equation.
A general note: A flow cytometer gives signals particle by particle.

Setting [5] is: human liver microsomes, read-out: Human LM Clint.
Setting [6] is: human liver microsomes, read-out: Human LM T½.

Where two headings read alike, the source gives them in different places.

T2 sequence (P29597 whole entry P760L): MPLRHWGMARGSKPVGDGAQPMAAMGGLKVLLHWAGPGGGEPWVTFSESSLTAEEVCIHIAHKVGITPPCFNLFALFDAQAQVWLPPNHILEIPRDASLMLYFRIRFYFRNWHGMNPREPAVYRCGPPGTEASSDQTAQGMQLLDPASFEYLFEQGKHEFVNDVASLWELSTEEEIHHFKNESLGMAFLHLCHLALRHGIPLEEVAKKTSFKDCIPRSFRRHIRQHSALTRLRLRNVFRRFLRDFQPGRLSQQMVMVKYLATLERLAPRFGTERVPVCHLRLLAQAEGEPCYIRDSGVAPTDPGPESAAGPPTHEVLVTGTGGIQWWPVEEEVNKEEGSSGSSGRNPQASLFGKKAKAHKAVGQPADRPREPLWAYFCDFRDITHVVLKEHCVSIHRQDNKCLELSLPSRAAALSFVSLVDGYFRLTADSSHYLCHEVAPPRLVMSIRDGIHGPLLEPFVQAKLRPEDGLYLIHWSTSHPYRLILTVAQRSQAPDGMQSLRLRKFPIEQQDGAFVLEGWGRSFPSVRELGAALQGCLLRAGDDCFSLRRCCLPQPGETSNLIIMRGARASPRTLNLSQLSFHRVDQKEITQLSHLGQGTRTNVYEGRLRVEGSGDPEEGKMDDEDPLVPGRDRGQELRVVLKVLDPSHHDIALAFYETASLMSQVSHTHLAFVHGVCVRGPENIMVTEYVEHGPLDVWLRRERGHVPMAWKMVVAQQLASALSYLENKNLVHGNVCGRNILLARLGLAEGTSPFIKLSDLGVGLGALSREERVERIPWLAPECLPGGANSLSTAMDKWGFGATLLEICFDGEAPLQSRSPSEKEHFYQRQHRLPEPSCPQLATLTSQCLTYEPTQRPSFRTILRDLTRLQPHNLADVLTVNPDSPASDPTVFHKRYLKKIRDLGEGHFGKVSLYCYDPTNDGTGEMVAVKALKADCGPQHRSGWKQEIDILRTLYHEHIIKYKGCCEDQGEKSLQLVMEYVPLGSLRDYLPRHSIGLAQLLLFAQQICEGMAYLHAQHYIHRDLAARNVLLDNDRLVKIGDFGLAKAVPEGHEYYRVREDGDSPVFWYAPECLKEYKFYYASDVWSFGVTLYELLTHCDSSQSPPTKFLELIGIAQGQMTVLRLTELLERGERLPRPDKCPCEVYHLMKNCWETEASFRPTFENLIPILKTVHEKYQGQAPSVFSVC
T3 sequence (P23458 583-855 limits assumed): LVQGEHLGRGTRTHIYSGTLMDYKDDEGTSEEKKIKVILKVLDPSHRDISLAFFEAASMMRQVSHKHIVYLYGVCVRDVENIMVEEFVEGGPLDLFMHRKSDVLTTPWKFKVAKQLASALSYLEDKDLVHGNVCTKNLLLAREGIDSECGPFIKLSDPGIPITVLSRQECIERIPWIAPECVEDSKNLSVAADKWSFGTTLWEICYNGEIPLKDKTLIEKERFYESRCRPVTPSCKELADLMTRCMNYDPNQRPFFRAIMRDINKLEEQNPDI
T1 sequence (P29597 589-875 limits assumed): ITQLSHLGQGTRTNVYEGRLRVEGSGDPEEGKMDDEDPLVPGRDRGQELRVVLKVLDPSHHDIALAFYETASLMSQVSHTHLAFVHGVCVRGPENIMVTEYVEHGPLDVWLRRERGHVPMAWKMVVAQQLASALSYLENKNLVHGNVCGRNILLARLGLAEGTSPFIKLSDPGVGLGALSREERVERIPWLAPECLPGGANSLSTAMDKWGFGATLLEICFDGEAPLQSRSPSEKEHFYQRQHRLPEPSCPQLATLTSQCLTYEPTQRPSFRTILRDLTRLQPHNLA

As usually defined, the IC50 is the point on the concentration scale where inhibition reaches its midpoint. Regarding `[2H]C([2H])([2H])NC(=O)c1cnc(NC(=O)C2CC2)cc1Nc1nn(C)c2ccn(CC(F)(F)F)c(=O)c12` [Example 53, 6-(Cyclopropanecarboxamido)-N-(methyl-d3)-4-((1-methyl-4-oxo-5-(2,2,2-trifluoroethyl)-4,5-dihydro-1H-pyrazolo[4,3-c]pyridin-3-yl)amino)nicotinamide], the IC50 on TYK2-JH2 domain came to 0.293 nM. For the same compound, the GI50 in data set [1] was determined as 144 nM. In addition, the fraction unbound at 5 h in data set [2] is 0.286.
With `[2H]C([2H])([2H])NC(=O)c1cnc(NC(=O)C2CC2)cc1Nc1nn(CCCOC)c2ccn(CC(F)(F)F)c(=O)c12` [Example 96, 6-(Cyclopropanecarboxamido)-4-((1-(3-methoxypropyl)-4-oxo-5-(2,2,2-trifluoroethyl)-4,5-dihydro-1H-pyrazolo[4,3-c]pyridin-3-yl)amino)-N-(methyl-d3)nicotinamide], in data set [1], the GI50 came to 351 nM. Besides, the microsomal CLint at 1 μM in data set [3] (setting [5]) came to 16.7 µL/min/mg. Besides, the half-life at 1 μM in data set [3] (setting [6]) was found to be 1.38 h. In data set [2], the fraction unbound at 5 h is 0.171.
On to `[2H]C([2H])([2H])NC(=O)c1cnc(NC(=O)C2CC2)cc1Nc1ccc2cnn(C([2H])([2H])C([2H])([2H])[2H])c2c1OC([2H])([2H])[2H]` [Example 134, 6-(Cyclopropanecarboxamido)-4-((1-(ethyl-d5)-7-(methoxy-d3)-1H-indazol-6-yl)amino)-N-(methyl-d3)nicotinamide], for which the CLint scaled at 1 μM in data set [4] (read-out: Human hepatocyte Clint(liver)) is 18 mL/min/kg. Further, the half-life at 1 μM in data set [4] (read-out: Human hepatocyte stability T1/2) is 1.64 h. The GI50 in data set [1] amounted to 61.4 nM. The fraction unbound at 5 h in data set [2] was 0.049.
As to `[2H]C([2H])([2H])NC(=O)c1cnc(NC(=O)C2CC2)cc1Nc1cn(C)c2c(F)cn(CC(F)F)c(=O)c12` [Example 158, 6-(Cyclopropanecarboxamido)-4-((5-(2,2-difluoroethyl)-7-fluoro-1-methyl-4-oxo-4,5-dihydro-1H-pyrrolo[3,2-c]pyridin-3-yl)amino)-N-(methyl-d3)nicotinamide], the IC50 on TYK2-JH2 domain came out at 0.948 nM. Also, the GI50 in data set [1] amounted to 68.4 nM. For the same compound, the microsomal CLint at 1 μM was less than 7.4 µL/min/mg in data set [3] (dog liver microsomes, read-out: Dog LM Clint); 15.2 µL/min/mg in data set [3] (setting [5]); 26.4 µL/min/mg in data set [3] (rat liver microsomes, read-out: Rat LM Clint). Moreover, the half-life at 1 μM is greater than 3.11 h in data set [3] (dog liver microsomes, read-out: Dog LM T½); 1.52 h in data set [3] (setting [6]); 0.875 h in data set [3] (rat liver microsomes, read-out: Rat LM T½). Moreover, the fraction unbound at 5 h in data set [2] was 0.039.
Regarding `[2H]C([2H])([2H])NC(=O)c1cnc(NC(=O)C2CC2)cc1Nc1csc2ncn(CC)c(=O)c12` [Example 216, 6-(Cyclopropanecarboxamido)-4-((3-ethyl-4-oxo-3,4-dihydrothieno[2,3-d]pyrimidin-5-yl)amino)-N-(methyl-d3)nicotinamide], on TYK2-JH2 domain, the IC50 stood at 0.525 nM. In addition, the GI50 in data set [1] stood at 181 nM. Besides, the fraction unbound at 5 h in data set [2] is 0.041.
Regarding `[2H]C([2H])([2H])NC(=O)c1cnc(NC(=O)C2CC2)cc1Nc1ccn2ncc(CO)c2c1OC` [Example 225, 6-(Cyclopropanecarboxamido)-4-((3-(hydroxymethyl)-4-methoxypyrazolo[1,5-a]pyridin-5-yl)amino)-N-(methyl-d3)nicotinamide], on TYK2-JH2 domain, the IC50 was determined as 0.868 nM and the JAK1/TYK2 selectivity amounted to 17.5. The compound further gave an IC50 on JAK1-JH2 domain of 15.2 nM. Moreover, the GI50 in data set [1] came to 565 nM. In data set [2], the fraction unbound at 5 h was 0.346.
`[2H]C([2H])([2H])NC(=O)c1cnc(NC(=O)C2CC2)cc1Nc1ccn2ncc(COC)c2c1OC` [Example 226, 6-(Cyclopropanecarboxamido)-4-((4-methoxy-3-(methoxymethyl)pyrazolo[1,5-a]pyridin-5-yl)amino)-N-(methyl-d3)nicotinamide]: on TYK2-JH2 domain, the IC50 was 1.46 nM and the JAK1/TYK2 selectivity is 38.8. In addition, the IC50 on JAK1-JH2 domain stood at 56.5 nM. For the same compound, the GI50 in data set [1] is 221 nM. The fraction unbound at 5 h in data set [2] was 0.126.
For the compound `CCn1ncc2ccc(Nc3cc(NC(=O)C4CC4)ncc3C(=O)NC)c(OC)c21` [Example 228, 6-(Cyclopropanecarboxamido)-4-((1-ethyl-7-methoxy-1H-indazol-6-yl)amino)-N-methylnicotinamide], the IC50 with pSTAT1 was 245 nM; on TYK2-JH2 domain, 0.288 nM; at JAK1-JH2 domain it was 6.48 nM. Besides, the JAK1/TYK2 selectivity on TYK2-JH2 domain came to 22.5. The GI50 in data set [1] was 29.3 nM. For the same compound, in data set [2], the fraction unbound at 5 h is 0.04.
